Laboratory results reported in patent publication US20220380402A1, “6-HYDRAZINOADENOSINE COMPOUNDS WITH A2A ADENOSINE RECEPTOR AGONIST ACTIVITY” (ACADEMY OF MILITARY MEDICAL SCIENCES, priority 2019, published 2022).

Experiments:
A2A adenosine receptor = biological target: T1, A2A adenosine receptor (Homo sapiens, UniProt P29274); assay: Radioligand binding test ([3H]CGS21680 displacement, hA2A HEK-293 cell membrane); conditions: calculated from IC50 by Cheng and Prusoff equation; [3H]CGS21680 25 nM, Km 22 nM; 25° C., 90 minutes
T1 construct: purchased PerkinElmer Research Products (Boston, Mass.); host or cells: HEK-293 cells, stably transfected; membrane preparation
T1 sequence (P29274 whole entry): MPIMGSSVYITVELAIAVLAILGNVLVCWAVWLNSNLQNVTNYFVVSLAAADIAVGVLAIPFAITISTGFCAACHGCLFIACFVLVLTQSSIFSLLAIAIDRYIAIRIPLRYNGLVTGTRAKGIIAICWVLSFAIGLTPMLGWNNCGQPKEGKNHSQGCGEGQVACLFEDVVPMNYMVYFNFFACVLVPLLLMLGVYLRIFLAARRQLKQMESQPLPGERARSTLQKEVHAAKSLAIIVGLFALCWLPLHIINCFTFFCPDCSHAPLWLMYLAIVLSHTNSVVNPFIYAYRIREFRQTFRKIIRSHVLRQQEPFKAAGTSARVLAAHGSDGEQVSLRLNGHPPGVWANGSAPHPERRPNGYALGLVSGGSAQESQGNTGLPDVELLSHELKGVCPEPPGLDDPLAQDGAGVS
Method: [3H]CGS21680 (2-[p-(2-carboxyethyl)phenylethylamino]-5′-N-ethylformamidoadenosine, [carboxy-1-ethyl-3H(N)]; 250 μCi) was purchased from PerkinElmer Research Products (Boston, Mass.).
Cell membrane stably transfected with (human) A2A adenosine receptor was prepared in HEK-293 cells. The cell membrane was obtained from PerkinElmer Research Products (Boston, Mass.).
CGS21680 (2-[p-(2-carboxyethyl)phenylethylamino]-5′-N-ethylformamidoadenosine) was purchased from Selleck (Shanghai, CN).
The A2A adenosine receptors used were all expressed in the cell membrane. […] The specific binding percentage of [3H]CGS21680 was calculated according to the CPM value, % specific binding of [3H]CGS21680=(CPMsample−CPMLow Control)/(CPMHigh Control−CPMLow Control)*100, in which
High Control was 0.5% DMSO, Low Control was 100 μM CGS21680. The IC50 value was calculated based on the compound concentration and the specific binding percentage of [3H]CGS21680 by curve fitting.
The inhibition constant (Ki) value was calculated from the IC50 value according to the Cheng and Prusoff equation, Ki=IC50/(1+[S]/Km), in which [S] was the concentration of the radioligand (25 nM), and Km was the human A2AAR dissociation constant (22 nM) of [3H]CGS21680. The inhibition constant Ki values for Compounds 1 to 20 of the present invention binding to A2A adenosine receptor were shown in Table 1.

blood-brain barrier = assay: Animal experiment of blood-brain barrier opening (FITC-Dextran in brain of SD rats); type: in vivo
Method: Fluorescein-labeled dextran FITC-Dextran (CAS: 60842-46-8) with a molecular weight of 10,000 MW was purchased from […] (Shanghai) Chemical Industry Development Co., Ltd.; PBS solution and experimental animal SD rats were obtained from commercial sources. FITC-Dextran solution was prepared with PBS to obtain six concentration gradients (0.001, 0.01, 0.1, 1, 0.5, 10 μg/ml), and a FITC-Dextran concentration standard curve was prepared by using microplate reader (λex=490 nm, λem=520 nm); 10 mg/ml FITC-Dextran solution was separately prepared, Compound 5 was added to PBS solution to make 1 mg/ml solution, 1 ml of 10 mg/ml FITC-Dextran solution and 1 ml of 1 mg/ml Compound 5 PBS solution were taken to make an administration solution; 1 ml of 10 mg/ml FITC-Dextran solution and 1 ml of PBS solution taken to make a blank control solution; 6 SD rats were injected with 2 ml of the administration solution respectively in the tail vein, while another 6 SD rats were injected with 2 ml of the blank control solution in the tail vein; after 30 minutes, the brain tissues of all SD rats were taken out, homogenized and centrifuged at 10,000 rpm for 15 minutes, and the supernatants were taken for testing; and a microplate reader (λex=490 nm, λem=520 nm) was used for the fluorescence detection of the solutions to be tested. […]

[1] = biological target: human adenosine receptor A2A (Homo sapiens, UniProt P29274); assay: Adenosine receptor A2A cAMP test (LANCE Ultra cAMP, hADORA2A-HEK293 cells); type: cell-based
Chain of human adenosine receptor A2A (P29274 whole entry): as above
Text: Experimental reagents and consumables: DMEM/F12, G418, Penicillin-Streptomycin, Versene Solution, HEPES, Hank's Buffered Saline Solution, PBS (pH 7.4, 1×, sterile), FBS, BSA Stabilizer 7.5%, Rolipram, NECA, were purchased from Gibico, Hyclone and Sigma, respectively. LANCE® Ultra cAMP kit (Eu-cAMP tracer, Ulight-anti-cAMP reagent, cAMP detection buffer) and hADORA2A-HEK293 cells were purchased from PerkinElmer Research Products (Boston, Mass.). All other reagents were of analytical grade and obtained from commercial sources. 384-well polypropylene microplate and 384-well white solid plate were purchased from Labcyte and Corning, respectively.
Cells stably expressing human adenosine receptor A2A (hADORA2A-HEK293 cells) were cultured in DMEM/F12 medium containing 10% FBS, 1× Penicillin-Streptomycin and 400 μg/ml G418 in a 37° C., 5% CO2 environment. Before the experiment, the cells were digested with Versene solution, and the cells were collected by centrifugation at 200 g at room temperature for 5 minutes, and finally resuspended with detection buffer (Hank's buffered saline solution, containing 5 mM HEPES, 0.1% BSA stabilizer and 10 μM Rolipram, pH 7.4). TECAN automated pipetting workstation was used to prepare a compound source plate by 3-fold diluting the compound in a 384-well polypropylene microplate with DMSO to form 11 concentration points, in which the 11 concentration points of the compound were 10 mM, 3.33 mM, 1.11 mM, 0.37 mM, 0.12 mM, 0.041 mM, 0.013 mM, 4.57×10^−3 mM, 1.52×10^−3 mM, 5×10^−4 mM and 1.7×10^−4 mM, respectively. Echo ultrasonic pipetting system (Labcyte) was used to transfer the test compound from the compound source plate to the detection plate, in which the volume of the compound transferred was 10 nl/well. The hADORA2A-HEK293 cell suspension was diluted with detection buffer to 30,000 cells/ml, and the cell suspension was transferred to the detection plate at a volume of 10 μl/well (300 cells/well). The detection plate was centrifuged at 150 g for 1 minute and pre-incubated at room temperature for 30 minutes. […] EnVison microplate reader (EnVision multimode plate reader, PerkinElmer) was used to test the level of cyclic adenosine monophosphate in the final solution (λex=320 nm, λem=665 nm & 615 nm). The EC50 (nM) value of the compound interacting with A2A adenosine receptor to stimulate the production of a level of cyclic adenosine monophosphate was calculated. The compound A2A receptor agonist titer was expressed as the EC50 (nM) value of the compound interacting with the A2A adenosine receptor to stimulate the production of a level of cyclic adenosine monophosphate.

Row | Ki (A2A adenosine receptor) | melting point | hA2AAR agonist function (in words) ([1]; conclusion from cAMP test) | EC50 ([1]; hADORA2A-HEK293 cells, 300 cells/well, stimulation of cyclic adenosine monophosphate) | SMILES | Opening of the blood-brain barrier (in words) (blood-brain barrier; SD rats, FITC-Dextran co-administered by tail vein, 30 minutes) | FITC-Dextran concentration in the brain of SD rats (blood-brain barrier; tail vein injection of 2 ml (10 mg/ml FITC-Dextran 10,000 MW + 1 mg/ml compound in PBS, 1:1), brain homogenate supernatant after 30 minutes, average of 6 rats, blank control 0.021)
1 | 353 nM | 162 °C | – | – | OC[C@H]1O[C@@H](n2cnc3c(N/N=C/c4ccc(-c5ccc(Br)cc5)o4)ncnc32)[C@H](O)[C@@H]1O [Compound 5, (2R,3R,4S,5R)-2-{6-{2-{(E)-[5-(4-bromophenyl)furan-2-yl]methylene}hydrazino}-9H-purin-9-yl}-5-(hydroxymethyl)tetrahydrofuran-3,4-diol] | could open the blood-brain barrier | –
2 | 13.8 nM | 206 °C | hA2AAR agonists | 18.6 nM | OC[C@H]1O[C@@H](n2cnc3c(N/N=C/c4ccc(OCc5ccc(F)cc5)cc4)ncnc32)[C@H](O)[C@@H]1O [Compound 7, (2R,3R,4S,5R)-2-{6-{2-{(E)-4-[(4-fluorobenzyl)oxy]benzylidene}hydrazino}9H-purin-9-yl}-5-(hydroxymethyl)tetrahydrofuran-3,4-diol] | – | 0.057 µg/mL
